Measured values as given in PMC3789652 (Journal of pharmaceutical sciences, 2011).

How the values were obtained:
[1] = n-octanol / sodium phosphate buffer; format: physicochemical; settings: n-octanol/sodium phosphate buffer pH 7.4, 0.15 M, room temperature; mean ± SD, n = 6
[2] = test system: plasma proteins; assay: plasma free fraction by ultrafiltration, monkey plasma; format: in vitro ADME, rhesus monkeys (Macaca mulatta); settings: mean ± SD, n = 3; for fP Monkey: arterial monkey plasma, ultrafiltration, room temperature; for mlogDpr/pl Monkey: log10[(1−fp)/fp], monkey plasma
[3] = test system: plasma proteins; assay: plasma free fraction by ultrafiltration, human plasma; format: in vitro ADME; settings: mean ± SD, n = 3; for mlogDpr/pl Human: log10[(1−fp)/fp]; for fP Human: ultrafiltration, room temperature

SMILES	mlogD [1]	fP Monkey [2]	mlogDpr/pl Monkey [2]	mlogDpr/pl Human [3]	fP Human [3]
COc1ccccc1N1CCN(CCCCn2ncc(=O)n(C)c2=O)CC1 [Radiotracer 1, [O-methyl-^11C]2-(4-(4-(2-methoxyphenyl)piperazin-1-yl)butyl)-4-methyl-1,2,4-triazine-3,5(2H,4H)dione]	1.13 ± 0.02	0.594 ± 0.016	−0.165 ± 0.029	0.101 ± 0.006	
N#Cc1cc(F)cc(C#Cc2csc(CF)n2)c1 [Radiotracer 4, 3-fluoro-5-(2-(2-(fluoromethyl)thiazol-4-yl)ethynyl)benzonitrile]	2.18 ± 0.22			1.25 ± 0.13	0.0550 ± 0.0165
CN([11CH3])C(=O)C(CCN1CCC(O)(c2ccc(Cl)cc2)CC1)(c1ccccc1)c1ccccc1 [Radiotracer 7, [N-methyl-^11C]N-desmethyl-loperamide]					0.123 ± 0.015
[2H]C([18F])Oc1cccc([C@H]2C[C@@H](N[C@H](C)c3ccccc3)C(=O)N2c2ccc(C(F)(F)F)cc2)c1 (stereo partly shown) [Radiotracer 18]	4.24 ± 0.08	0.0041 ± 0.0001	2.39 ± 0.01	2.31 ± 0.14	0.0050 ± 0.0017
